Laboratory results: patent US10815457B2, “Active CXCR4+ immune cells and methods for their production and use” (UNIVERSITY OF PITTSBURGH—OF THE COMMONWEALTH SYSTEM OF …, priority 2014, dated 2020)
Entries after “also recorded” stand apart in the source; their conditions may differ.

Assays:
CXCR4 on NK cells = test: CXCR4 expression on IL-12+IL-15-activated NK cells, by flow cytometry; type: cell-based; conditions: overnight with IL-12p70 (20 ng/ml) and IL-15 (20 ng/ml), 200 μM CoCl2
Description: Negatively Isolated (EasySep) NK cells were cultured overnight with NK cell activators, IL-12p70 (20 ng/ml) and IL-15 (20 ng/ml), in absence or presence of 200 μM CoCl2 (Hypoxia mimic; HIF1α activator). Absolute numbers (A) and percentage (B) of CXCR4 NK cells are calculated by flow cytometry and are depicted in the figure.

[1] = tested on: CXCL12-responsive GZMB+ CD8+ T cells; test: Chemotaxis of GZMB+ CD8+ T cells to recombinant CXCL12 (transwell); type: cell-based, human; conditions: 50 ng/ml CXCL12; cells primed with CD3/CD28 + IL-12 or type-1 polarized DCs, then DMOG
[2] = tested on: CXCR4+/GZMB+ CD8+ T cells; test: FACS staining for CXCR4 and GZMB in ex vivo induced CTLs exposed to a hypoxia mimic; type: cell-based, human

Structure (SMILES)	CXCR4 expression on NK cells (absolute numbers and percentage) (CXCR4 on NK cells)	responsiveness to CXCL12 (migration of GZMB+ CD8+ T cells) [1]	CXCR4 expression (CXCR4+/GZMB+ double positive CD8+ T cells) ([2]; CD3-CD28 beads +/- IL-12 (5 ng/ml) 6 days or type-1 polarized DCs, then 3 days with 200 μM DMOG)	intracellular GZMB expression in arising effector cells ([2]; CD8+ T cells primed in type-1-polarizing conditions, DMOG)
[Cl][Co][Cl] [CoCl2, cobalt chloride]	increases CXCR4 expression			
COC(=O)CNC(=O)C(=O)OC [DMOG, dimethyloxalylglycine]		highest migration of GZMB^+ CTL; also recorded: increases CXCR4 expression and responsiveness to CXCL12	promote high levels of CXCR4; also recorded: increases CXCR4 expression	without affecting the intracellular GZMB expression
